Reference: patent publication US20230331737A1, “MTORC1 MODULATORS AND USES THEREOF” (Aeovian Pharmaceuticals, Inc., priority 2020, published 2023)

Experiments:
[1] = target: FKBP12 (Homo sapiens, UniProt P62942); experiment: SPR assay to determine binding affinity to FKBP12 (direct binding); details: immobilized biotinylated avi-FKBP12, single-cycle kinetics
Method: SPR Assay to Determine Binding Affinity to FKBP12.
Biotinylated avi-FKBP12 was immobilized on a streptavidin chip (Cytiva Series S SA) using a Biacore 8K or 8k+ (Cytiva). […] Test compounds described in Table 11 were diluted in DMSO to 100× working concentration. Each test compound was 100-fold diluted in 50 mM HEPES pH 7.5, 150 mM NaCl, 2 mM MgCl2, 1 mM DTT, 0.05% Tween-20 and a serial dilution prepared (9 concentrations, 3-fold dilutions, 0.08-500 nM). […] The compound dilutions were then injected at 100 uL/min for 120 seconds contact time in sequence with increasing concentrations. Dissociation was monitored for 3600 seconds. 50 mM HEPES pH 7.5, 150 mM NaCl, 2 mM MgCl2, 1 mM DTT, 0.05% Tween-20, 1% DMSO was used as running buffer. The single-cycle kinetics data were fit to a 1:1 binding model to measure the association rate ka (1/Ms), the dissociation rate kd (1/s) and the affinity Kd (M).

[2] = target: FKBP12 ternary complex with FRB (Homo sapiens, UniProt P42345+P62942); experiment: SPR assay to characterize ternary complex formation with FKBP12 (FRB injected over compound-saturated FKBP12); type: binding; details: FRB dilutions with 100 nM test compound over immobilized FKBP12
Method: Biotinylated avi-FKBP12 was immobilized on a streptavidin chip (Cytiva Series S SA) using a Biacore 8K or 8k+ (Cytiva). To achieve an immobilization level of 100 RU, 0.3 μg/ml biotinylated avi-FKBP12 were injected for 80 sec at a flow rate of 10 μl/min. Serial dilution of FRB was prepared (12 concentrations, 3-fold dilutions, 0.00011-20 μM) and supplemented with 100 nM of a test compound. A-B-A injection mode was used to ensure saturation immobilized FKBP12 with respective test compound. 100 nM solution of the respective test compound was injected before FRB injection for 120 sec and during dissociation for 420 sec. The FRB dilutions were then injected 120 seconds contact time with increasing concentrations. Rapamycin was used as reference sample. 50 mM HEPES pH 7.5, 150 mM NaCl, 2 mM MgCl2, 1 mM DTT, 0.05% Tween-20, 1% DMSO was used as running buffer at a flow rate of 30 μl/min. The multi-cycle kinetics data were fit to a 1:1 binding model to measure the association rate ka (1/Ms), the dissociation rate kd (1/s) and the affinity Kd (M). In case of fast association and dissociation, steady state affinity analysis following the law of mass action was used to determine the affinity Kd (M).

[3] = target: T1, mTORC1 (Homo sapiens, UniProt P42345+P62942); experiment: mTORC1 inhibition in PC-3 cells, AlphaLISA of p70S6K pT389 levels; type: cell-based; details: mTORC1 as measured by inhibition of p70S6K pT389 levels, read-out: mTROC1 IC50
T1 construct: endogenous in cells; host or cells: PC-3 cells
Method: mTORC1 inhibition was determined via analysis of phosphorylation levels of Phospho-p70 S6 kinase (p70S6K pT389) and Phospho-S6 Ribosomal Protein (pRPS6 pS240/pS244) with the corresponding AlphaLISA kits (PerkinElmer Alpha SF Ultra™ Multiplex phospho (Thr389)/total p70 S6K Assay Kit (Eu/Tb) and AlphaLISA SF Ultra™ p-Ribosomal Protein S6 (Ser240/244) Assay Kit).
%−activity=100*((Sample−Low control)/(High control−Low control))

Sequence of FKBP12 (P62942 whole entry, species assumed): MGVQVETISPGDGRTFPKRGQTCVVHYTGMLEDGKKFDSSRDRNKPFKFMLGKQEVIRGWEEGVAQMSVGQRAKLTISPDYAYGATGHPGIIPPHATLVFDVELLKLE

SMILES	Kd [1] [nM]	Kd [2] [nM]	IC50 [3] [nM]
COCCO[C@H]1C[C@@H]2CC[C@@H](C)[C@@](O)(O2)C(=O)C(=O)N2CCCC[C@H]2C(=O)O[C@H]([C@H](C)C[C@@H]2CC[C@@H](OCCO)[C@H](OC)C2)CC(=O)[C@H](C)/C=C(\C)[C@@H](O)[C@@H](OC)C(=O)[C@H](C)C[C@H](C)/C=C/C=C/C=C/1C [Compound 439, (1R,9S,12S,15R,16E,18R,19R,21R,23S,24E,26E,28E,30S,32S,35R)-1,18-dihydroxy-12-[(1R)-2-[(1S,3R,4R)-4-(2-hydroxyethoxy)-3-methoxy-cyclohexyl]-1-methyl-ethyl]-19-methoxy-30-(2-methoxyethoxy)-15,17,21,23,29,35-hexamethyl-11,36-dioxa-4-azatricyclo[30.3.1.0^4,9]hexatriaconta-16,24,26,28-tetraene-2,3,10,14,20-pentone]	0.3 to 1	< 500	< 0.8
CO[C@@H]1C[C@H](C[C@@H](C)[C@@H]2CC(=O)[C@H](C)/C=C(\C)[C@@H](O)[C@@H](OC)C(=O)[C@H](C)C[C@H](C)/C=C/C=C/C=C(\C)[C@@H](OCC3COC3)C[C@@H]3CC[C@@H](C)[C@@](O)(O3)C(=O)C(=O)N3CCCC[C@H]3C(=O)O2)CC[C@H]1OCCO [Compound 474, (1R,9S,12S,15R,16E,18R,19R,21R,23S,24E,26E,28E,30S,32S,35R)-1,18-dihydroxy-12-[(1R)-2-[(1S,3R,4R)-4-(2-hydroxyethoxy)-3-methoxy-cyclohexyl]-1-methyl-ethyl]-19-methoxy-15,17,21,23,29,35-hexamethyl-30-(oxetan-3-ylmethoxy)-11,36-dioxa-4-azatricyclo[30.3.1.04,9]hexatriaconta-16,24,26,28-tetraene-2,3,10,14,20-pentone]	0.3 to 1	500 to 1100	< 0.8
CO[C@@H]1C[C@H](C[C@@H](C)[C@@H]2CC(=O)[C@H](C)/C=C(\C)[C@@H](O)[C@@H](OC)C(=O)[C@H](C)C[C@H](C)/C=C/C=C/C=C(\C)[C@H](OC3CC3)C[C@@H]3CC[C@@H](C)[C@@](O)(O3)C(=O)C(=O)N3CCCC[C@H]3C(=O)O2)CC[C@H]1O [Compound 519, (1R,9S,12S,15R,16E,18R,19R,21R,23S,24E,26E,28E,30R,32S,35R)-30-(cyclopropoxy)-1,18-dihydroxy-12-[(1R)-2-[(1S,3R,4R)-4-hydroxy-3-methoxy-cyclohexyl]-1-methyl-ethyl]-19-methoxy-15,17,21,23,29,35-hexamethyl-11,36-dioxa-4-azatricyclo[30.3.1.04,9]hexatriaconta-16,24,26,28-tetraene-2,3,10,14,20-pentone]	< 0.3	< 500	< 0.8
CO[C@@H]1C[C@H](C[C@@H](C)[C@@H]2CC(=O)[C@H](C)/C=C(\C)[C@@H](O)[C@@H](OC)C(=O)[C@H](C)C[C@H](C)/C=C/C=C/C=C(\C)[C@@H](OCCc3ccccc3)C[C@@H]3CC[C@@H](C)[C@@](O)(O3)C(=O)C(=O)N3CCCC[C@H]3C(=O)O2)CC[C@H]1O [Compound 520, (1R,9S,12S,15R,16E,18R,19R,21R,23S,24E,26E,28E,30S,32S,35R)-1,18-dihydroxy-12-[(1R)-2-[(1S,3R,4R)-4-hydroxy-3-methoxy-cyclohexyl]-1-methyl-ethyl]-19-methoxy-15,17,21,23,29,35-hexamethyl-30-(2-phenylethoxy)-11,36-dioxa-4-azatricyclo[30.3.1.04,9]hexatriaconta-16,24,26,28-tetraene-2,3,10,14,20-pentone]	> 1	< 500	< 0.8
CO[C@@H]1C[C@H](C[C@@H](C)[C@@H]2CC(=O)[C@H](C)/C=C(\C)[C@@H](O)[C@@H](OC)C(=O)[C@H](C)C[C@H](C)/C=C/C=C/C=C(\C)[C@@H](OCC3COC3)C[C@@H]3CC[C@@H](C)[C@@](O)(O3)C(=O)C(=O)N3CCCC[C@H]3C(=O)O2)CC[C@H]1O [Compound 521, (1R,9S,12S,15R,16E,18R,19R,21R,23S,24E,26E,28E,30S,32S,35R)-1,18-dihydroxy-12-[(2R)-1-[(1S,3R,4R)-4-hydroxy-3-methoxycyclohexyl]propan-2-yl]-19-methoxy-15,17,21,23,29,35-hexamethyl-30-[(oxetan-3-yl)methoxy]-11,36-dioxa-4-azatricyclo[30.3.1.04,9]hexatriaconta-16,24,26,28-tetraene-2,3,10,14,20-pentone]	< 0.3	500 to 1100	< 0.8
CO[C@@H]1C[C@H](C[C@@H](C)[C@@H]2CC(=O)[C@H](C)/C=C(\C)[C@@H](O)[C@@H](OC)C(=O)[C@H](C)C[C@H](C)/C=C/C=C/C=C(\C)[C@@H](OC3COC3)C[C@@H]3CC[C@@H](C)[C@@](O)(O3)C(=O)C(=O)N3CCCC[C@H]3C(=O)O2)CC[C@H]1O [Compound 523, (1R,9S,12S,15R,16E,18R,19R,21R,23S,24E,26E,28E,30S,32S,35R)-1,18-dihydroxy-12-[(2R)-1-[(1S,3R,4R)-4-hydroxy-3-methoxycyclohexyl]propan-2-yl]-19-methoxy-15,17,21,23,29,35-hexamethyl-30-(oxetan-3-yloxy)-11,36-dioxa-4-azatricyclo[30.3.1.04,9]hexatriaconta-16,24,26,28-tetraene-2,3,10,14,20-pentone]	< 0.3	> 1100	< 0.8
CO[C@@H]1C[C@H](C[C@@H](C)[C@@H]2CC(=O)[C@H](C)/C=C(\C)[C@@H](O)[C@@H](OC)C(=O)[C@H](C)C[C@H](C)/C=C/C=C/C=C(\C)[C@@H](OCCOCCO)C[C@@H]3CC[C@@H](C)[C@@](O)(O3)C(=O)C(=O)N3CCCC[C@H]3C(=O)O2)CC[C@H]1O [Compound 524, (1R,9S,12S,15R,16E,18R,19R,21R,23S,24E,26E,28E,30S,32S,35R)-1,18-dihydroxy-30-[2-(2-hydroxyethoxy)ethoxy]-12-[(1R)-2-[(1S,3R,4R)-4-hydroxy-3-methoxy-cyclohexyl]-1-methyl-ethyl]-19-methoxy-15,17,21,23,29,35-hexamethyl-11,36-dioxa-4-azatricyclo[30.3.1.04,9]hexatriaconta-16,24,26,28-tetraene-2,3,10,14,20-pentone]	< 0.3	500 to 1100	< 0.8
CO[C@@H]1C[C@H](C[C@@H](C)[C@@H]2CC(=O)[C@H](C)/C=C(\C)[C@@H](O)[C@@H](OC)C(=O)[C@H](C)C[C@H](C)/C=C/C=C/C=C(\C)[C@@H](OC3CC3)C[C@@H]3CC[C@@H](C)[C@@](O)(O3)C(=O)C(=O)N3CCCC[C@H]3C(=O)O2)CC[C@H]1OCCO [Compound 527, (1R,9S,12S,15R,16E,18R,19R,21R,23S,24E,26E,28E,30S,32S,35R)-30-(cyclopropoxy)-1,18-dihydroxy-12-[(1R)-2-[(1S,3R,4R)-4-(2-hydroxyethoxy)-3-methoxy-cyclohexyl]-1-methyl-ethyl]-19-methoxy-15,17,21,23,29,35-hexamethyl-11,36-dioxa-4-azatricyclo[30.3.1.04,9]hexatriaconta-16,24,26,28-tetraene-2,3,10,14,20-pentone]	0.3 to 1	< 500	< 0.8
COCCO[C@H]1C[C@@H]2CC[C@@H](C)[C@@](O)(O2)C(=O)C(=O)N2CCCC[C@H]2C(=O)O[C@H]([C@H](C)C[C@@H]2CC[C@@H](O)[C@H](OC)C2)CC(=O)[C@H](C)/C=C(\C)[C@@H](O)[C@@H](OC)C(=O)[C@H](C)C[C@H](C)/C=C/C=C/C=C/1C [Compound 529, (1R,9S,12S,15R,16E,18R,19R,21R,23S,24E,26E,28E,30S,32S,35R)-1,18-dihydroxy-12-[(1R)-2-[(1S,3R,4R)-4-hydroxy-3-methoxy-cyclohexyl]-1-methyl-ethyl]-19-methoxy-30-(2-methoxyethoxy)-15,17,21,23,29,35-hexamethyl-11,36-dioxa-4-azatricyclo[30.3.1.04,9]hexatriaconta-16,24,26,28-tetraene-2,3,10,14,20-pentone]	< 0.3	< 500	< 0.8
